Results from patent publication US11028087B2, “2,6-disubstituted-9-cyclopentyl-9H-purines, use thereof as medicaments, and pharmaceutical compositions” (UNIVERZITA PALACKEHO V OLOMOUCI, priority 2017, dated 2021).
Where two headings read alike, the source gives them in different places.

Assays:
FLT3-ITD = biological target: T1, FLT3-ITD (Homo sapiens, UniProt P36888); assay: Kinase inhibition assay with [γ-33P]ATP; assay type: biochemical; settings: comparative example; read-out: Influence of compounds on protein kinase inhibition, IC50 values (μM) FLT3 ITD
T1 sequence (P36888 1-993): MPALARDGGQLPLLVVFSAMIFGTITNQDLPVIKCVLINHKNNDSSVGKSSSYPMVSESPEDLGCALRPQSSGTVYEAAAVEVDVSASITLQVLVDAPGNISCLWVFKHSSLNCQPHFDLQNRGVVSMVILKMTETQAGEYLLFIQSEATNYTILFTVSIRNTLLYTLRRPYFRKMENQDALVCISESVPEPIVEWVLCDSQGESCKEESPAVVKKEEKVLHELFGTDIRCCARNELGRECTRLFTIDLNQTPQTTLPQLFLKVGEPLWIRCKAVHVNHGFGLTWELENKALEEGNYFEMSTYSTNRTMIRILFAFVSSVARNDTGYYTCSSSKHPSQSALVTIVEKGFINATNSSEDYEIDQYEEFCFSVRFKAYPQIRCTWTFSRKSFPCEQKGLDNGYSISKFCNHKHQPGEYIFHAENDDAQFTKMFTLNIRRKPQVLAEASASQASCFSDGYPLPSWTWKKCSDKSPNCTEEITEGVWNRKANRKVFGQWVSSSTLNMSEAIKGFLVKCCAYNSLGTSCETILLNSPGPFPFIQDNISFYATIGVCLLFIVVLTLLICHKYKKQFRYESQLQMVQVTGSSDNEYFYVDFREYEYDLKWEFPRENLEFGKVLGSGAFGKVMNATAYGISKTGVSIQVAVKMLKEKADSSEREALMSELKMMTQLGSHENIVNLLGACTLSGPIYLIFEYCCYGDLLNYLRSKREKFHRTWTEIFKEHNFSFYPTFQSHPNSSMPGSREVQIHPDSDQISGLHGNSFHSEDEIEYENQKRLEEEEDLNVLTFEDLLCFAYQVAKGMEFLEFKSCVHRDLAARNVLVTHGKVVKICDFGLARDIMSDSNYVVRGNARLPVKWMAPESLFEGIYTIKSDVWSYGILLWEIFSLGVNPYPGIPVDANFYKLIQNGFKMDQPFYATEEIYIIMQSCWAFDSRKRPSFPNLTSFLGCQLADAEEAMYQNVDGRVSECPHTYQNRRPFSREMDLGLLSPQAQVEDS
Description: (§1) CDK1/Cyclin B and CDK2/Cyclin E kinases were produced in Sf9 insect cells via baculoviral infection and purified on a NiNTA column (Qiagen). CDK5/p35 and CDK7Cyclin H/MAT1, FLT3 WT, FLT3-ITD and FLT3 D835 were purchased from ProQinase GmbH. The kinase reactions were assayed with 1 mg/mL histone H1 (for CDK1, CDK2 and CDK5), (YSPTSPS)2KK peptide (for CDK7) or AGLT substrate (for FLT3) in the presence of 15/15/0.15/1.5/1 μM ATP (for CDK1/CDK2/CDK5/CDK7/FLT3), 0.05 μCi [γ-^33P]ATP and of the test compound in a final volume of 10 μL, all in a reaction buffer (60 mM HEPES-NaOH, pH 7.5, 3 mM MgCl2, 3 mM MnCl2, 3 μM Na-orthovanadate, 1.2 mM DTT, 2.5 μg/50 μl PEG20,000). The reactions were stopped by adding 5 μL of 3% aq H3PO4. Aliquots were spotted onto P-81 phosphocellulose (Whatman), washed 3× with 0.5% aq H3PO4 and finally air-dried.

CDK2/Cyclin E = biological target: T2, CDK2/Cyclin E (Homo sapiens, UniProt P24941); assay: Kinase inhibition assay with [γ-33P]ATP; assay type: biochemical
T2 construct: made in house; host or cells: Sf9 insect cells, baculoviral infection
Description: as §1

MCF-7 = assay: Calcein AM cytotoxicity assay; assay type: cell-based; settings: Homo sapiens
From the text: (§2) Cytotoxicity of the compounds is the major property determining their anticancer effect in vivo. One of the parameters used, as the basis for cytotoxicity assays, is the integrity of cytoplasmic membrane of viable cells. For example, a microtiter assay, which uses acetomethoxy derivate of calcein (Calcein AM), is widely used for evaluation of cell proliferation and cytotoxicity. This assay is used in drug screening programs and in chemosensitivity testing. Intracellular esterases of viable cells convert calcein AM to green-fluorescent calcein of which signal corresponds to the number of viable cells in the culture.
(§3) We have been using the following cell lines: MV4-11 (acute myeloid leukemia, FLT3-ITD positive), MOLM-13 (acute myeloid leukemia, FLT3-ITD positive), THP-1 (acute myeloid leukemia, wt FLT3), U937 (monocytic leukemia, wt FLT3), EOL-1 (eosinophilic leukaemia, carrying the fusion FIP1L1-PDGFRA), H1703 (non-small cell lung carcinoma, PDGFRA amplification). […] K562 and MCF-7 cell lines were maintained in DMEM supplemented with 10% fetal bovine serum, penicilin (100 U/ml) and streptomycin (100 μg/ml). All cell lines were cultivated at 37° C. in 5% CO2. For cytotoxicity assays, cells were seeded in appropriate densities into 96 well plates and the next day tested compounds were added at various concentrations in triplicates. Three days after drug addition, Calcein AM solution (final concentration 1 μg/ml; Thermo Scientific, USA) was added into each well and incubated for 1 h.

[1] = tested on: MV4-11 (acute myeloid leukemia, FLT3-ITD positive); assay: Calcein AM cytotoxicity assay; assay type: cell-based; settings: Homo sapiens
From the text: as §2, §3

[2] = tested on: THP-1 (acute myeloid leukemia, wt FLT3); assay: Calcein AM cytotoxicity assay; assay type: cell-based; settings: Homo sapiens
From the text: as §2, §3

[3] = tested on: EOL-1 (eosinophilic leukaemia, carrying the fusion FIP1L1-PDGFRA); assay: Calcein AM cytotoxicity assay; assay type: cell-based; settings: Homo sapiens
From the text: as §2, §3

K562 = assay: Calcein AM cytotoxicity assay; assay type: cell-based; settings: Homo sapiens
From the text: as §2, §3

[4] = tested on: U937 (monocytic leukemia, wt FLT3); assay: Calcein AM cytotoxicity assay; assay type: cell-based; settings: Homo sapiens
From the text: as §2, §3

[5] = tested on: MOLM-13 (acute myeloid leukemia, FLT3-ITD positive); assay: Calcein AM cytotoxicity assay; assay type: cell-based; settings: Homo sapiens
From the text: as §2, §3

[6] = tested on: Kasumi-1 (acute myeloid leukemia, KIT mutation Asn822Lys); assay: Calcein AM cytotoxicity assay; assay type: cell-based; settings: Homo sapiens
From the text: as §2
We have been using the following cell lines: MV4-11 (acute myeloid leukemia, FLT3-ITD positive), MOLM-13 (acute myeloid leukemia, FLT3-ITD positive), THP-1 (acute myeloid leukemia, wt FLT3), U937 (monocytic leukemia, wt FLT3), EOL-1 (eosinophilic leukaemia, carrying the fusion FIP1L1-PDGFRA), H1703 (non-small cell lung carcinoma, PDGFRA amplification). They were maintained in RPMI-1640 supplemented with 10% fetal bovine serum, penicillin (100 U/ml) and streptomycin (100 μg/ml). Kasumi-1 (acute myeloid leukemia, KIT mutation Asn822Lys) cells were cultivated in RPMI-1640 supplemented with 15% fetal bovine serum, penicillin (100 U/ml) and streptomycin (100 μg/ml). K562 and MCF-7 cell lines were maintained in DMEM supplemented with 10% fetal bovine serum, penicilin (100 U/ml) and streptomycin (100 μg/ml). All cell lines were cultivated at 37° C. in 5% CO2. For cytotoxicity assays, cells were seeded in appropriate densities into 96 well plates and the next day tested compounds were added at various concentrations in triplicates. Three days after drug addition, Calcein AM solution (final concentration 1 μg/ml; Thermo Scientific, USA) was added into each well and incubated for 1 h. After this incubation period, fluorescence of the live cells was measured at 485 nm/538 nm (ex/em) with a Fluoroskan Ascent microplate reader (Labsystems).

FLT3 WT = biological target: T3, FLT3 WT (Homo sapiens, UniProt P36888); assay: Kinase inhibition assay with [γ-33P]ATP; assay type: biochemical; settings: AGLT substrate, 1 μM ATP
T3 construct: purchased ProQinase GmbH
T3 sequence (P36888 27-993): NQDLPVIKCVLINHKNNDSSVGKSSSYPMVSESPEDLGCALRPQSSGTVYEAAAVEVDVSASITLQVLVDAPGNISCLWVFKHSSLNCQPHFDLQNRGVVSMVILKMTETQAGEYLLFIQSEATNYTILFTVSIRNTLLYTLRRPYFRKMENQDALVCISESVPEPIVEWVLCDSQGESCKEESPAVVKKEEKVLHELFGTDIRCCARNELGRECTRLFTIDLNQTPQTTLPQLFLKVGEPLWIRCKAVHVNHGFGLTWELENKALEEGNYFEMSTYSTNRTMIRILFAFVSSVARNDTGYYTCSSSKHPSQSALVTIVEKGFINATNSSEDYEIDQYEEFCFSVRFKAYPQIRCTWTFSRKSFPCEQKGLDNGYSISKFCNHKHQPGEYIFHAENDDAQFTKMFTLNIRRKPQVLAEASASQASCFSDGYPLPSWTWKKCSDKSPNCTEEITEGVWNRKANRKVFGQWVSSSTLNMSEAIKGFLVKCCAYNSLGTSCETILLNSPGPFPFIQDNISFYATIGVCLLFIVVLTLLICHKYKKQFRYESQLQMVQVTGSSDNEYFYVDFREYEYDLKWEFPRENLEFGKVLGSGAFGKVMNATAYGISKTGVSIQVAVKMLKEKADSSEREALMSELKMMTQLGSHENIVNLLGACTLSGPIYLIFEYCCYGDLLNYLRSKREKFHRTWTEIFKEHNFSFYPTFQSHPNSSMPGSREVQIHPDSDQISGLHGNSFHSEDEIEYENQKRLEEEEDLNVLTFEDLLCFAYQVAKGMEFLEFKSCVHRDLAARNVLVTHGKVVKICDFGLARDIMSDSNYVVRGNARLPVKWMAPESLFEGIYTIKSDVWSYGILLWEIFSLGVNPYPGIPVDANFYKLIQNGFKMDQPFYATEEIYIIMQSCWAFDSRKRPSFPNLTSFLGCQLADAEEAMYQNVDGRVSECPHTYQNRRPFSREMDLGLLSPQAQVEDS
Description: as §1

CDK5/p35 = biological target: T4, CDK5/p35 (Homo sapiens, UniProt Q00535); assay: Kinase inhibition assay with [γ-33P]ATP; assay type: biochemical; settings: histone H1, 0.15 μM ATP
T4 construct: purchased ProQinase GmbH
Description: as §1

CDK1/Cyclin B = biological target: T5, CDK1/Cyclin B (Homo sapiens, UniProt P06493); assay: Kinase inhibition assay with [γ-33P]ATP; assay type: biochemical; settings: histone H1, 15 μM ATP
T5 construct: made in house; host or cells: Sf9 insect cells, baculoviral infection
Description: as §1

[7] = comparative example, read-out: Influence of compounds on protein kinase inhibition, IC50 values (μM) CDK2
[8] = comparative example, MV4-11, 72 h, read-out: Influence of compounds on proliferation (72 h), EC50 values (μM) MV4-11
[9] = comparative example, K562, 72 h, read-out: Influence of compounds on proliferation (72 h), EC50 values (μM) K562
[10] = comparative example, MOLM-13, 72 h, read-out: Influence of compounds on proliferation (72 h), EC50 values (μM) MOLM-13
[11] = 72 h, Kasumi-1, Calcein AM, three days, read-out: EC50 values (μM) Kasumi-1
[12] = histone H1, 15 μM ATP, read-out: IC50 values (μM) CDK2
[13] = MCF7, 72 h, MCF-7, Calcein AM, three days, read-out: EC50 values (μM) MCF-7
[14] = 72 h, MV4-11, Calcein AM, three days after drug addition, read-out: EC50 values (μM) MV4-11
[15] = 72 h, THP-1, Calcein AM, three days, read-out: EC50 values (μM) THP-1
[16] = EOL1, 72 h, EOL-1, Calcein AM, three days, read-out: EC50 values (μM) EOL-1
[17] = 72 h, K562, Calcein AM, three days, read-out: EC50 values (μM) K562
[18] = U-937, 72 h, U937, Calcein AM, three days, read-out: EC50 values (μM) U937
[19] = 72 h, MOLM-13, Calcein AM, three days, read-out: EC50 values (μM) MOLM-13

T4 sequence (Q00535 whole entry): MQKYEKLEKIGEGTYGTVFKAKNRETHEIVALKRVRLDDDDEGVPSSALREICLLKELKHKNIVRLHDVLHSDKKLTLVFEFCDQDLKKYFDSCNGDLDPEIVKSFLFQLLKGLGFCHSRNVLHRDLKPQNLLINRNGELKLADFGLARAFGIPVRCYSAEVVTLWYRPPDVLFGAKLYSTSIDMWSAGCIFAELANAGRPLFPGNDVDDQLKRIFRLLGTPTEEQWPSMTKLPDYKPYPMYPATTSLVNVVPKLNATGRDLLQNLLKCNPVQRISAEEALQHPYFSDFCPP
T4 sequence (Q15078 whole entry partner): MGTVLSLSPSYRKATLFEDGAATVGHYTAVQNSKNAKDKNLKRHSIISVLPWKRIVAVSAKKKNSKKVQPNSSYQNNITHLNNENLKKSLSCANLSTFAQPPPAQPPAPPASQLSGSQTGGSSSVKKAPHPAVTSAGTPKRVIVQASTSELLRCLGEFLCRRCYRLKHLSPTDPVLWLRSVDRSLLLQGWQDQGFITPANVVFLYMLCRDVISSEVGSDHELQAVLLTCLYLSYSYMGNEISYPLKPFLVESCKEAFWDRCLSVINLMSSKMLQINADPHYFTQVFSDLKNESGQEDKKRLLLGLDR
T5 sequence (P06493 whole entry, species assumed): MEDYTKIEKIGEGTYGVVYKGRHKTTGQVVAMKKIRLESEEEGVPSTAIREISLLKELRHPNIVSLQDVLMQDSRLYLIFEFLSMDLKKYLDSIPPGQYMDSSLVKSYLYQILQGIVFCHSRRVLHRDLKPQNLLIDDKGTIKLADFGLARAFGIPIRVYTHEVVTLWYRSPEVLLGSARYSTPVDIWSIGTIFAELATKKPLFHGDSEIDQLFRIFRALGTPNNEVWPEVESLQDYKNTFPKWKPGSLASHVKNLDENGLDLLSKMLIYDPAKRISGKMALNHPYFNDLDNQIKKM
T5 sequence (P14635 whole entry partner, species assumed): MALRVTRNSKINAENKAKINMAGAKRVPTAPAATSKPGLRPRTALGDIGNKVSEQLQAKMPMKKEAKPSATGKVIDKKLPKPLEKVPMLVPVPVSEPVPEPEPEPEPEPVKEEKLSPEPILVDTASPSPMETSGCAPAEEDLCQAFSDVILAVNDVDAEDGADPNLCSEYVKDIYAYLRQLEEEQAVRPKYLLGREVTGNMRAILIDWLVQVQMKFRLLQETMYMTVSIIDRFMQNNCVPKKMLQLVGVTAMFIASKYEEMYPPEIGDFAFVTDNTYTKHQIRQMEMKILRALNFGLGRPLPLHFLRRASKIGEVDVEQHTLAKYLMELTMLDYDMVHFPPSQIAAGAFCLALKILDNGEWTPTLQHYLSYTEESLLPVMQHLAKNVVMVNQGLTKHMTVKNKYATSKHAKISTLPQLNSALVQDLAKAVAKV

Row | Structure (SMILES) | IC50 (FLT3-ITD) | IC50 (CDK2/Cyclin E; [7]) | EC50 [1, 8] | EC50 (K562; [9]) | EC50 [5, 10] | EC50 [6, 11] | IC50 (FLT3 WT) | IC50 (CDK2/Cyclin E; [12]) | IC50 (CDK5/p35) | IC50 (CDK1/Cyclin B) | EC50 (MCF-7; [13]) | EC50 [1, 14] | EC50 [2, 15] | EC50 [3, 16] | EC50 (K562; [17]) | EC50 [4, 18] | EC50 [5, 19] | also measured
1 | NC1CCC(Nc2nc(Nc3ccc(CN4CCOCC4)cc3)c3ncn(Cc4ccccc4)c3n2)CC1 (stereo not drawn) [Benzyl derivative of compound 264, reference compound] | 1.03 µM | 7.51 µM | 0.393 µM | 2.69 µM | 1.26 µM |  |  |  |  |  |  |  |  |  |  |  |  | EC50 (MCF-7; MCF7, comparative example, MCF-7, 72 h, read-out: Influence of compounds on proliferation (72 h), EC50 values (μM) MCF-7): 4.83 µM; EC50 ([2]; comparative example, THP-1, 72 h, read-out: Influence of compounds on proliferation (72 h), EC50 values (μM) THP-1): 14.8 µM; EC50 ([3]; EOL1, comparative example, EOL-1, 72 h, read-out: Influence of compounds on proliferation (72 h), EC50 values (μM) EOL-1): 0.491 µM; EC50 ([4]; U-937, comparative example, U937, 72 h, read-out: Influence of compounds on proliferation (72 h), EC50 values (μM) U937): 2.62 µM
2 | NCCCCCCNc1nc(Nc2ccc(CN3CCOCC3)cc2)c2ncn(C3CCCC3)c2n1 [Compound 38] |  |  |  |  |  | 1.23 µM | 0.021 µM | 3.56 µM | 8.16 µM | 6.16 µM | 5.55 µM | 0.086 µM | 3.59 µM | 0.276 µM | 4.57 µM | 2.92 µM | 0.064 µM | 
3 | NCCCCCNc1nc(Nc2ccc(CN3CCOCC3)cc2)c2ncn(C3CCCC3)c2n1 [Compound 267] |  |  |  |  |  | 1.25 µM | 0.025 µM | 2.04 µM | 3.71 µM | 6.05 µM | 2.27 µM | 0.032 µM | 2.42 µM | 0.071 µM | 1.79 µM | 3.63 µM | 0.02 µM | 
4 | NC1CCC(Nc2nc(Nc3ccc(CN4CCOCC4)cc3)c3ncn(-c4ccccc4)c3n2)CC1 (stereo not drawn) [Phenyl derivative of compound 264, reference compound] | 0.759 µM | > 5 µM | 0.648 µM | 1.81 µM | 0.912 µM |  |  |  |  |  |  |  |  |  |  |  |  | EC50 ([6]; comparative example, Kasumi-1, 72 h, read-out: Influence of compounds on proliferation (72 h), EC50 values (μM) Kasumi-1): 0.722 µM
